ChEMBL document CHEMBL6078714, “Discovery of N-Trifluoromethylated Noscapines as Novel and Potent Agents for the Treatment of Glioblastoma” (J Med Chem, 2025)
Activity calls are given as the source filed them. The calls are words filed in the database; no cut-off is given here.

What was measured:
[1] = tested on: U-87 MG; experiment: Antiproliferative activity against human U87 cells; type: functional, cell-based, U-87MG ATCC
[2] = Permeability of compound incubated for 12 hrs by PAMPA; type: ADME; details: read-out: permeability
[3] = tested on: U-87 MG; experiment: Antiproliferative activity against human U-87 MG cells assessed as inhibition of cell proliferation incubated for 72 hrs by CCK8 assay; type: functional, cell-based, U-87MG ATCC
[4] = tested on: U-118-MG; experiment: Antiproliferative activity against human U-118-MG cells assessed as inhibition of cell proliferation incubated for 72 hrs by CCK8 assay; type: functional, cell-based
[5] = tested on: U-118-MG; experiment: Antiproliferative activity against human U-118- MG cells assessed as inhibition of cell proliferation at 10 uM by crystal violet staining based analysis; type: functional
[6] = tested on: U-118-MG; experiment: Antiproliferative activity against human U-118- MG cells assessed as inhibition of cell proliferation by crystal violet staining based analysis; type: functional; details: dose 10-40 µM
[7] = Stability of compound in sodium phosphate buffer at pH 7.4 measured after 48 hrs by 1H NMR analysis; type: physicochemical; details: pH 7.4, 48 h
[8] = Stability of compound in 0.1M HCl solution at pH 1.0 measured after 48 hrs by 1H NMR analysis; type: physicochemical; details: buffer, pH 1, 48 h
[9] = tested on: U-118-MG; experiment: Cell cycle arrest in human U-118-MG cells assessed as accumulation of cells at G1 phase at 100 uM incubated for 24 hrs by flow cytometric analysis (reference value: 56.2 %); type: functional
[10] = tested on: U-118-MG; experiment: Cell cycle arrest in human U-118-MG cells assessed as accumulation of cells at S phase at 100 uM incubated for 24 hrs by flow cytometric analysis (reference value: 10.7 %); type: functional
[11] = tested on: U-118-MG; experiment: Cell cycle arrest in human U-118-MG cells assessed as accumulation of cells at G2 phase at 100 uM incubated for 24 hrs by flow cytometric analysis (reference value: 30.6 %); type: functional
[12] = tested on: U-118-MG; experiment: Antitumor activity against human U-118-MG cells xenografted in male BALB/c nude mouse assessed as tumor growth inhibition at 2.5 mg/kg, ip administered daily for 4 weeks relative to control; type: functional; details: 672 h, read-out: TGI
[13] = Toxicity in male BALB/c nude mouse xenografted with human U-118-MG cells assessed as body weight loss at 2.5 mg/kg, ip administered daily for 4 weeks; type: organism-based; details: in vivo, 672 h
[14] = Nephrotoxicity in male BALB/c nude mouse xenografted with human U-118-MG cells assessed as intravascular necrosis of renal tubules at 0.5 mg/kg, ip administered daily for 4 weeks by H and E staining based analysis; type: toxicity, organism-based; details: in vivo, 672 h
[15] = Nephrotoxicity in male BALB/c nude mouse xenografted with human U-118-MG cells assessed as shedding of renal tubular epithelial cells at 0.5 mg/kg, ip administered daily for 4 weeks by H and E staining based analysis; type: toxicity, organism-based; details: in vivo, 672 h
[16] = tested on: U-118-MG; experiment: Induction of apoptosis in human U-118-MG cells assessed as apoptotic rate at 20 uM incubated for 24 hrs by Annexin V-FITC/PI staining based flow cytometric analysis relative to control; type: functional
[17] = tested on: U-118-MG; experiment: Cell cycle arrest in human U-118-MG cells assessed as accumulation of cells at G1 phase at 20 uM incubated for 24 hrs by flow cytometric analysis (reference value: 56.2 %); type: functional
[18] = tested on: U-118-MG; experiment: Cell cycle arrest in human U-118-MG cells assessed as accumulation of cells at S phase at 20 uM incubated for 24 hrs by flow cytometric analysis (reference value: 10.7 %); type: functional
[19] = tested on: U-118-MG; experiment: Cell cycle arrest in human U-118-MG cells assessed as accumulation of cells at G2 phase at 20 uM incubated for 24 hrs by flow cytometric analysis (reference value: 30.6 %); type: functional
[20] = Drug distribution in male Swiss albino mouse plasma at 5 mg/kg, iv measured after 0.5 hrs; type: ADME, organism-based
[21] = Drug distribution in male Swiss albino mouse brain at 5 mg/kg, iv measured after 0.5 hrs; type: ADME, organism-based; details: read-out: Ct
[22] = Ratio of drug concentration in male Swiss albino mouse brain to plasma at 5 mg/kg, iv measured after 0.5 hrs; type: ADME, organism-based; details: read-out: BPR
[23] = tested on: U-118-MG; experiment: Antitumor activity against human U-118-MG cells xenografted in male BALB/c nude mouse assessed as tumor growth inhibition at 10 mg/kg, ip administered daily for 4 weeks relative to control; type: functional; details: 672 h, read-out: TGI
[24] = Stability of compound in sodium carbonate buffer at pH 10 measured after 48 hrs by 1H NMR analysis; type: physicochemical; details: pH 10, 48 h
[25] = Stability of compound in 0.1M HCl solution at pH 1.0 assessed as parent compound remaining measured after 6 hrs by 1H NMR analysis; type: physicochemical; details: read-out: Stability
[26] = Stability of compound in 0.1M HCl solution at pH 1.0 assessed as parent compound remaining measured after 48 hrs by 1H NMR analysis; type: physicochemical; details: read-out: Stability

| SMILES | Papp at 12 h [2] [×10⁻⁶ cm/s] | IC50 [3] [µM] | IC50 [4] [µM] | Activity [5] | Activity [6] | Stability [7] | Stability [8] | further results |
| --- | --- | --- | --- | --- | --- | --- | --- | --- |
| CC1=C2CC[C@@](C)(O)[C@@H]2[C@H]2OC(=O)[C@@H](CN(C)C)[C@@H]2CC1 |  |  |  |  |  |  |  | IC50 [1]: 21 µM |
| COc1ccc2c(c1OC)C(=O)O[C@@H]2[C@H]1c2c(c(C#N)c3c(c2OC)OCO3)CCN1C(F)(F)F | 12.8 | 39.1 | 19.7 | Active | Dose-dependent-effect |  |  |  |
| FC(F)(F)N1CCc2ccccc2C1Cc1ccccc1 (configuration not stated) |  |  |  |  |  | Stable | Stable |  |
| Cn1nnc2c(C(N)=O)ncn2c1=O [TEMOZOLOMIDE] | 1.47 | > 100 | > 100 |  |  |  |  | Activity [9]: 41.3%; Activity [10]: 18.9%; Activity [11]: 36.8%; inhibition in vivo at 2.5 mg/kg [12]: 80.4%; Activity [13]: Toxic; Activity [14]: Toxic; Activity [15]: Toxic |
| COc1ccc2c(c1OC)C(=O)O[C@@H]2[C@H]1c2c(cc3c(c2OC)OCO3)CCN1C [NOSCAPINE] | 11 | > 100 | > 100 |  |  |  |  | Activity [16]: 16.3%; Activity [17]: 52.9%; Activity [18]: 10.7%; Activity [19]: 34.1%; concentration at 0.5 h [20]: 45.3 ng/mL; concentration at 0.5 h [21]: 19.6 ng/g; Kp at 0.5 h [22]: 0.43; inhibition in vivo at 10 mg/kg [23]: 31% |
| FC(F)(F)N1CCCc2ccccc21 |  |  |  |  |  | Unstable | Unstable | Stability [24]: Unstable; remaining at 6 h [25]: 7% |
| CC1c2ccccc2CCN1C(F)(F)F (configuration not stated) |  |  |  |  |  | Stable | Stable |  |
| COc1ccc2c(c1OC)C(=O)O[C@@H]2[C@H]1c2c(cc3c(c2OC)OCO3)CCN1C(F)(F)F | 18 | 67.5 | 31.3 | Active | Dose-dependent-effect | Stable |  | Stability [24]: Stable; remaining at 48 h [26]: 73% |
| COc1ccc2c(c1OC)C(=O)O[C@@H]2[C@H]1c2c(c(Cl)c3c(c2OC)OCO3)CCN1C(F)(F)F | 16.8 | 25.8 | 9.83 | Active | Dose-dependent-effect |  |  |  |
| COc1ccc2c(c1OC)C(=O)O[C@@H]2[C@H]1c2c(c(I)c3c(c2OC)OCO3)CCN1C(F)(F)F | 15.8 | 33.4 | 17.5 | Active | Dose-dependent-effect |  |  |  |
| FC(F)(F)N1CCc2ccccc2C1 |  |  |  |  |  | Stable | Stable |  |
| FC(F)(F)N1CCc2ccccc2[C@@H]1c1ccccc1 |  |  |  |  |  | Stable | Stable |  |
